Data reported in patent US10189803B2, “Synthesis of therapeutic and diagnostic drugs centered on regioselective and stereoselective ring opening of aziridinium ions” (ILLINOIS INSTITUTE OF TECHNOLOGY, priority 2008, dated 2019).

Experiments:
Hela cells = experiment: Antiproliferative activity, MTS assay, HeLa cells; type: cell-based, Human; settings: Homo sapiens; 72 h incubation, MTS
Description: (§1) Cell culture Human cervix HeLa cell line was obtained from ATCC (Rockville, Md.) and cultured in minimum essential medium (MEM) with L-glutamine (2 mM), Earle's BSS and sodium bicarbonate (1.5 g/L), supplemented with 10% fetal bovine serum (FBS), non-essential amino acids (0.1 mM), sodium pyruvate (1 mM) and antibiotic/antimycotic solution in a humidified atmosphere with 5% CO2 at 37° C. […] Lung fibroblast MRC-5 cell line was obtained from ATCC (Rockville, Md.) and cultured in ATCC formulated EMEM, supplemented with 10% fetal bovine serum (FBS) in a humidified atmosphere with 5% CO2 at 37° C.
(§2) Antiproliferative Activity. Cells were seeded onto 96-well plate at density of 2,000 cells for Hela cells or 5,000 cells for HT29 cells or 5,000 cells for MRC-5 per well in 0.1 mL complete medium and allowed to attach for 24 h. Varying concentrations of the test compounds in the final volume of 0.1 mL complete medium were then added in at least five series dilutions and incubated for 72 h. To measure cell proliferation, the Cell Titer 96 aqueous nonreactive cell proliferation assay (Promega Life Sciences, Madison, Wis.) was used according to the manufacturer's instructions. Briefly, MTS (2 mg/mL) and PMS (0.92 mg/ml) were mixed in a ratio of 20:1. An aliquot (20 μL) of the MTS/PMS mixture was added into each well, and the plate was incubated for 3 h at 37° C. Optical absorbance at 490 nm was then recorded with an enzyme-linked immunosorbent assay (ELISA) microtiter plate reader (Biotek). Each experiment was done at least in triplicate. Antiproliferative activity of the test compounds was expressed as the fraction of optical densities of treated the cells relative to the untreated solvent controls.^31 The data were plotted in GraphPad Prizm 3.0. Nonlinear regression analysis was used to determine IC50 values.
(§3) Cell culture. Human cervix HeLa cell line was obtained from ATCC (Rockville, Md.) and cultured in minimum essential medium (MEM) with L-glutamine (2 mM), Earle's BSS and sodium bicarbonate (1.5 g/L), supplemented with 10% fetal bovine serum (FBS), non-essential amino acids (0.1 mM), sodium pyruvate (1 mM) and antibiotic/antimycotic solution in a humidified atmosphere with 5% CO2 at 37° C.
as §2, with “activity.” for “Activity.”, “cells” for “cells or 5,000 cells for MRC-5”, “controls.” for “controls.^31”

HT29 cells = experiment: Antiproliferative activity, MTS assay, HT29 cells; type: cell-based, Human; settings: Homo sapiens, HT-29, 72 h incubation
Description: as §1, §2, §3
as §2, with “activity.” for “Activity.”, “cells” for “cells or 5,000 cells for MRC-5”, “controls.” for “controls.^31”

[1] = TEM measurement of self-assembled micelles; type: physicochemical; settings: aqueous solution
Source text: Amphifacial cholic acid is a good targeting moiety, and its conjugation to MR contrast agent is expected to form helical globular aggregates with a favorable pharmacokinetic and relaxivity profile. In FIG. 41, cholic acid was converted to an activated amide 1, which was further reacted with a functionalized NE3TA (2) containing an amino group to provide Compound 3. The t-butyl group of Compound 3 was removed by treatment with 4M HCl in 1,4-dioxane to provide CA-NE3TA (4). […] The Gd(III) complex of CA-NE3TA was prepared as described above. Gd(CA-NE3TA) self-assembles into nano-sized micells as evidenced by TEM measurement (˜10 nm, FIG. 24). […] Aggregation of Gd(CA-NE3TA) as evidenced by TEM images is proposed to result from heating during the complexation reaction and/or gadolinium induced cross linking. T1 relaxivity of Gd(CA-NE3TA) in aqueous solution (0.2 mM) was measured to 10.85 mM^−1 s^−1. […] This increase in relaxivity may be a result of slower molecular rotation due to aggregation of the complex as evidenced by the TEM image.
TEM measurement. Stock solutions of compounds CA-NE3TA and Gd(CA-NE3TA) were prepared in 18 MΩ H2O and diluted to the final concentrations of CA-NE3TA (10 μM, pH=5) and Gd(CA-NE3TA) (100 μM or 10 μM, pH=7). In triplicate, a 5 μL aliquot of CA-NE3TA solution was placed on a gold-coated grid (300 mesh, formvar support film, Cat #FF300-Au, Electron Microscopy Sciences, PA). The sample on the grid was air-dried for 5-10 min after each deposition. The grid was air-dried overnight, transferred into a desiccator, and further dried in vacuo for 1.5 days. The sample of Gd(CA-NE3TA) (10 μM) was prepared as described above. […]
TEM images of CDCA-NE3TA indicate that the hydrophobic bile acid conjugated to NE3TA forms discrete semi-square micelles in nanometer size (˜15-60 nm, FIG. 29). […] Aza cholic acid 10 was prepared starting from the readily available cholic acid according to the literature. […]

[2] = T1 relaxivity of Gd(III) complexes (Bruker mq60 NMR analyzer); type: physicochemical; settings: aqueous solution (0.2 mM)
Description: Gd(NE3TA) and Gd(NE3TA-Bn) were synthesized by reacting GdCl3 with NE3TA and NE3TA-Bn, respectively. NE3TA or NE3TA-Bn were mixed with GdCl3 in a molar ratio of 1 to 0.9, and the resulting mixture at pH 7 was heated to 90° C. and stirred until no free Gd(III) ions were detected using an ArsenazoIII (AAIII) assay. Relaxivity of the aqueous […] complexes (pH 7) was measured on a Bruker MQ60 NMR analyzer, and the concentration of the Gd(III) complexes was measured by ICP-MS. […] NE3TA was successfully conjugated with the most common bile acid, cholic acid (FIG. 41).
(§4) Relaxivity Measurements. Relaxivity measurements were acquired by taking the slope of a plot of 1/T1 (s^−1) versus concentration (mM). The longitudinal water proton relaxation times (T1) were determined using a Bruker mq60 NMR (Bruker Canada, Milton, ON, Canada) analyzer operating at 59.97 MHz and 37° C. The agent was added to Millipore water and serially diluted by 0.5 to give a series of 5 concentrations (500 μL total volume) for each relaxivity trial. The T1 was determined using an inversion recovery pulse sequence with 10 different pulse separations per sample, 4 repetitions per echo time, phase cycling, and a recycle delay that is ≥5 times the T1 of each given sample. All curves were fit using a monoexponential curve fitting formula.
Relaxivity of the aqueous Gd(III) complexes (˜pH 7) were measured on a Bruker MQ60 NMR analyzer, and the concentration of the Gd(III) complexes were measured by ICP-MS. […] As mentioned above, the on and off binding to Gd(III) of one of the pendant coordinates would have resulted enhanced relaxivity of Gd(C-NETA) compared to Gd(C-DOTA). Among the evaluated Gd(III) complexes, Gd(C-NE3TA) gives the highest T1 relaxivity at 60 MHz, probably due to increase in q. The relaxation rates for the Gd(III) chelates are dominated by the inner-sphere dipolar coupling between the coordinated water molecule and the paramagnetic Gd(III). The measured relaxivities arise from the exchange between the coordinated water molecule and the surrounding water molecules in solution. […] No indication of Gd(III) dissociation is evident from the relaxivity data, which is in agreement with the in vitro serum stability and in vivo biodistribution studies.
as §4, with “The T1 relaxivity was determined” for “The T1 was determined”

Structure (SMILES)	IC50 (Hela cells) [µM]	IC50 (HT29 cells) [µM]	micelle size (TEM) [1]	T1 relaxivity [2] [mM⁻¹ s⁻¹]
CC(CCC(=O)Nc1ccc(CC(CN2CCN(CC(=O)O)CCN(CC(=O)O)CC2)NCC(=O)O)cc1)C1CCC2C3C(O)CC4CC(O)CCC4(C)C3CC(O)C12C (centres unmarked) [CA-NE3TA, [4-Carboxymethyl-7-(2-(carboxymethyl-amino)-3-{4-[4-(3,7,12-trihydroxy-10,13-dimethyl-hexadecahydro-cyclopenta[a]phenanthren-17-yl)-pentanoylamino]-phenyl}-propyl)-[1,4,7]triazonan-1-yl]-acetic acid]	24 ± 2.7	8.3 ± 2.4	10-50 nm	
CC(CCC(=O)Nc1ccc(CC(CN2CCN(CC(=O)O)CCN(CC(=O)O)CC2)NCC(=O)O)cc1)C1CCC2C3C(O)CC4CC(O)CCC4(C)C3CCC12C (centres unmarked) [CDCA-NE3TA, [4-Carboxymethyl-7-(2-(carboxymethyl-amino)-3-{4-[4-(3,7-dihydroxy-10,13-dimethylhexadecahydro-cyclopenta[a]phenanthren-17-yl)-pentanoylamino]-phenyl}-propyl)-[1,4,7]triazonan-1-yl]-acetic acid]	24.6 ± 1	15.5 ± 3.2	15-60 nm	
CC(CCC(=O)Nc1ccc(CC(CN2CCN(CC(=O)O)CCN(CC(=O)O)CC2)NCC(=O)O)cc1)C1CCC2C3C(O)CC4CC(O)CCC4(C)C3CC(O)C12C.[Gd] (centres unmarked) [Gd(CA-NE3TA)]			~10 nm	10.85
